Structures can show the parent of a compound that is named as a salt.
Tested on: HT29 RAMS11 overexpressing cells
Assay: High-throughput viability assay (resazurin), 119 FDA-approved anticancer drugs, RAMS11 overexpressing cells (Clone1, Clone2)
Conditions: for Viability Fold Change: 72 h, vs empty vector control
[1] = OE1 (RAMS11 overexpression clone 1), 0.1 uM drug
[2] = OE1 (RAMS11 overexpression clone 1), 1 uM drug
[3] = OE1 (RAMS11 overexpression clone 1), 10 uM drug
[4] = OE2 (RAMS11 overexpression clone 2), 0.1 uM drug
[5] = OE2 (RAMS11 overexpression clone 2), 1 uM drug
[6] = OE2 (RAMS11 overexpression clone 2), 10 uM drug

| Compound | Viability Fold Change [1] | Viability Fold Change [2] | Viability Fold Change [3] | Viability Fold Change [4] | Viability Fold Change [5] | Viability Fold Change [6] | increase in drug resistance in HT29 RAMS11 overexpressing cells (topoisomerase inhibitors, vs empty vector cells) |
| --- | --- | --- | --- | --- | --- | --- | --- |
| CC(C)C[C@H](NC(=O)[C@H](Cc1ccccc1)NC(=O)c1cnccn1)B(O)O [Bortezomib] | 0.6015 | 1.059 | 1.152 | 0.5035 | 0.8063 | 0.9968 | – |
| Clc1ccc(C(c2ccccc2Cl)C(Cl)Cl)cc1 (stereo not drawn) [Mitotane] | 0.8185 | 0.9667 | 0.9105 | 0.9482 | 0.9714 | 0.987 | – |
| CS(=O)(=O)CCNCc1ccc(-c2ccc3ncnc(Nc4ccc(OCc5cccc(F)c5)c(Cl)c4)c3c2)o1 [Lapatinib] | 1.034 | 1.269 | 1.357 | 1.216 | 1.285 | 1.391 | – |
| C[C@]12CC[C@H](O)CC1=CC[C@@H]1[C@@H]2CC[C@]2(C)C(c3cccnc3)=CC[C@@H]12 [Abiraterone] | 0.9503 | 0.9997 | 1.001 | 1.008 | 1.043 | 0.9879 | – |
| Nc1nc(F)nc2c1ncn2[C@@H]1O[C@H](CO)[C@@H](O)[C@@H]1O [Fludarabine] | 0.869 | 0.9921 | 1.056 | 0.973 | 1.069 | 1.073 | – |
| CO[C@H]1C[C@@H]2CC[C@@H](C)[C@@](O)(O2)C(=O)C(=O)N2CCCC[C@H]2C(=O)O[C@H]([C@H](C)C[C@@H]2CC[C@@H](O)[C@H](OC)C2)CC(=O)[C@H](C)/C=C(\C)[C@@H](O)[C@@H](OC)C(=O)[C@H](C)C[C@H](C)/C=C/C=C/C=C/1C [Rapamycin] | 0.7003 | 0.7403 | 0.7222 | 0.6232 | 0.772 | 0.7575 | – |
| Nc1ncn([C@@H]2O[C@H](CO)[C@@H](O)[C@H]2O)c(=O)n1 [Azacitidine] | 1.05 | 1.098 | 0.9367 | 1.089 | 1.054 | 0.9049 | – |
| Nc1nc(Cl)nc2c1ncn2[C@H]1C[C@H](O)[C@@H](CO)O1 [Cladribine] | 0.8736 | 1.321 | 1.949 | 0.9358 | 1.327 | 1.86 | – |
| CC(=O)[C@]1(O)Cc2c(O)c3c(c(O)c2[C@@H](O[C@H]2C[C@H](N)[C@H](O)[C@H](C)O2)C1)C(=O)c1ccccc1C3=O [idarubicin HCl, reference compound] | – | – | – | – | – | – | at least a two-fold increase in drug resistance |
| CN(C)C/C=C/C(=O)Nc1cc2c(Nc3ccc(F)c(Cl)c3)ncnc2cc1O[C@H]1CCOC1 [Afatinib] | 1.034 | 1.121 | 1.39 | 1.147 | 1.156 | 1.398 | – |
| CC(=O)O[C@H]1C(=O)[C@@]2(C)[C@H]([C@H](OC(=O)c3ccccc3)[C@]3(O)C[C@H](OC(=O)[C@H](O)[C@@H](NC(=O)c4ccccc4)c4ccccc4)C(C)=C1C3(C)C)[C@]1(OC(C)=O)CO[C@@H]1C[C@@H]2O [Paclitaxel] | 2.775 | 3.5 | 3.241 | 2.662 | 3.065 | 3.061 | – |
| CC(C)Cn1cnc2c(N)nc3ccccc3c21 [Imiquimod] | 1.048 | 1.101 | 1.03 | 1.037 | 1.138 | 0.9752 | – |
| Cn1c(CCCC(=O)O)nc2cc(N(CCCl)CCCl)ccc21 [Bendamustine hydrochloride] | 0.8888 | 0.9725 | 0.935 | 1.01 | 0.9036 | 0.899 | – |
| O=C(CCBr)N1CCN(C(=O)CCBr)CC1 [Pipobroman] | 0.9413 | 0.9838 | 0.9918 | 0.9432 | 0.9438 | 0.8949 | – |
| NC(=O)NO [Hydroxyurea] | 0.9496 | 0.9632 | 0.9723 | 0.9871 | 1.074 | 0.9675 | – |
| N#Cc1ccc(C(c2ccc(C#N)cc2)n2cncn2)cc1 [Letrozole] | 0.9923 | 0.9536 | 0.9791 | 0.9454 | 1.057 | 0.8412 | – |
| CO[C@@]12[C@H](COC(N)=O)C3=C(C(=O)C(C)=C(N)C3=O)N1C[C@@H]1N[C@@H]12 [Mitomycin] | 0.9668 | 1.547 | 2.416 | 1.006 | 1.624 | 2.004 | – |
| CC1=C(/C=C/C(C)=C/C=C/C(C)=C/C(=O)O)C(C)(C)CCC1 [Tretinoin] | 1.161 | 1.226 | 1.142 | 1.068 | 1.373 | 1.336 | – |
| Nc1ccn([C@@H]2O[C@H](CO)[C@@H](O)[C@@H]2O)c(=O)n1 [Cytarabine hydrochloride] | 0.9825 | 1.254 | 1.524 | 0.9917 | 1.381 | 1.876 | – |
| Cc1cc(Nc2ncc(Cl)c(Nc3ccccc3S(=O)(=O)C(C)C)n2)c(OC(C)C)cc1C1CCNCC1 [Ceritinib] | 0.9923 | 1.015 | 0.8304 | 1.009 | 1.068 | 0.8195 | – |
| Arsenic trioxide | 0.9683 | 0.9697 | 0.8821 | 1.015 | – | 1.115 | – |
| O=NN(CCCl)C(=O)NCCCl [Carmustine] | 1.007 | 0.9864 | 0.8696 | 1.005 | 1.079 | 1.04 | – |
| Oc1ncnc2[nH]ncc12 [Allopurinol] | 0.8682 | 0.9042 | 0.776 | 0.9002 | 0.8635 | 0.8648 | – |
| CN(C)c1nc(N(C)C)nc(N(C)C)n1 [Altretamine] | 0.949 | 0.9105 | 0.845 | 0.9299 | 0.9672 | 0.9171 | – |
| CC(=O)Nc1cccc(-n2c(=O)n(C3CC3)c(=O)c3c(Nc4ccc(I)cc4F)n(C)c(=O)c(C)c32)c1 [Trametinib] | 1.35 | 1.732 | 1.975 | 1.213 | 1.641 | 1.886 | – |

From patent US12024707B2, “Methods and compositions for modulating lncRNAs and methods of treatment based on lncRNA expression” (Washington University, priority 2020, dated 2024)
